Test in all cases: growth of human tumour cells (NCI), 48 h
The test system of test [1] is A549 NSCLC.
In test [2] the test system is ACHN renal.
In test [3] the test system is BT-549 breast.
The test system of test [4] is DU-145 prostate.
For test [5], the system named is HL-60(TB) leukemia.
Test [6] has as its system HS 578T breast.
Test [7] deals with M14 melanoma.
Test [8] concerns OVCAR-3 ovarian.
Test [9] relates to SK-OV-3 ovarian.
For test [10], the system named is UACC-62 melanoma.

“And” between values parts separate entries of the source, which are not always exact repeats. Identical values can stand only once.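 1) Cells in 96-well plates. 2) Compound, 48 h, 5 concentrations. 3) Linear interpolation between surrounding doses. 4) Unreached endpoint = highest concentration. GI50 marks 50% less growth. TGI is the concentration that stops growth completely.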

As to `CN(C)CCSCCO`, the TGI in [1], in test [2], in [3], in test [4], in test [5] and in [6] was above 100 µM throughout. Besides, the TGI in [7], in test [8], in test [9] and in test [10] was above 100 µM in each case.
Consider `CC(C)C[C@H](NC(=O)[C@@H](NC(=O)c1cccc(-c2ccccc2)n1)[C@@H](C)O)B(O)O`, for which the GI50 in test [1] is 0.0173 µM and 0.0188 µM; in test [2], 0.00408 µM; in test [3], 0.0047 µM; in [4] it was 0.0077 µM; in test [5] it was 0.00379 µM and 0.0101 µM; in test [6] it was 0.00404 µM and < 0.0107 µM. The GI50 in test [8] was 0.00385 µM; in test [9] it was 0.0474 µM and 0.0325 µM; in [10], 0.00558 µM and < 0.0111 µM. For the same molecule, the TGI in test [1] is 8.58 µM; in test [2], above 11.1 µM; in [4] it was 1.81 µM; in test [5] it was 0.162 µM and 0.0287 µM; in test [6] it was above 100 µM; in [7] it was 0.0207 µM. For the same molecule, the TGI in test [8] is 0.0191 µM and < 0.011 µM; in test [9], 7.82 µM; in test [10], 0.0311 µM and 0.0412 µM.
`Cn1cnc2c(F)c(Nc3ccc(Br)cc3F)c(C(=O)NOCCO)cc21`: the GI50 was 5.87 µM in test [1]; 10.5 µM in test [2]; above 60.2 µM in test [3]; 51.1 µM in test [4]; 0.0193 µM and 0.0192 µM in [5]; > 2.14 µM and 33.6 µM in test [6]. Besides, the GI50 in test [7] is 0.0175 µM and 0.0233 µM; in test [8], above 100 µM; in test [9], above 92 µM; in [10] it was 0.0174 µM and 0.0234 µM. Also, the TGI in test [1], in test [2], in test [3], in test [4], in test [5] and in [6] was above 100 µM throughout. The TGI is 0.307 µM in test [7]; above 100 µM in test [8]; above 100 µM in test [9]; 0.228 µM and 0.664 µM in [10].
Regarding `O=C(N/N=C/c1ccc(Cl)cc1Cl)c1ccc2nc(-c3ccc(Cl)cc3)[nH]c2c1`, the GI50 was 2.16 µM in [1]; 1.74 µM in test [2]; 4.93 µM in test [3]; 1.76 µM in [4]; 1.85 µM in test [5]; 2.28 µM in test [6]. Also, the GI50 was 1.65 µM in test [7], 1.84 µM in [8], 1.79 µM in test [9] and 1.78 µM in test [10]. Also, the TGI in test [1] came out at 4.53 µM; in test [2] it was 3.17 µM; in test [3] it was 21.3 µM; in [4], 3.44 µM; in [5], 6.53 µM; in test [6], 5.27 µM. Besides, the TGI is 3.84 µM in test [7], 3.39 µM in test [8], 4.31 µM in test [9] and 3.4 µM in test [10].
As for `COc1cccc(N=N/C(=N\NC(=O)c2cc(Br)ccc2O)c2ccc(N(CCC#N)CCC#N)cc2OC)c1`, the GI50 was 49.3 µg/mL in test [1]; 56.8 µg/mL in test [2]; 74.1 µg/mL in test [3]; 87.2 µg/mL in test [4]; 15 µg/mL in test [5]; 48.9 µg/mL in test [6]. Besides, the GI50 in test [7] is 57.3 µg/mL; in [8], 59 µg/mL; in test [9], 72.6 µg/mL; in test [10], 60.5 µg/mL. Moreover, the TGI in test [1] is above 150 µg/mL; in [2], above 150 µg/mL; in test [3], above 150 µg/mL; in [4] it was above 150 µg/mL; in test [5] it was 15 µg/mL; in test [6] it was above 150 µg/mL. The TGI in test [7], in [8], in test [9] and in [10] was above 150 µg/mL each time.
With `Nc1cc(S(N)(=O)=O)ccc1SSc1ccc(S(N)(=O)=O)cc1N`, the TGI in test [1], in test [2], in test [3], in [4], in [5] and in test [6] was above 100 µM throughout. In addition, the TGI in [7], in [8], in test [9] and in [10] was above 100 µM in each case.
Turning to `Cc1cc(C)c(S(=O)(=O)N(CCc2cccc(Br)c2)Cc2ccc(-c3cccc(S(C)(=O)=O)c3)cc2)c(C)c1`, the GI50 in test [1], in [2], in [3], in [4], in [5] and in [6] was above 100 µM each time. Further, the GI50 in test [7], in test [8], in test [9] and in test [10] was above 100 µM in each case. Besides, the TGI in [1], in [2], in test [3], in [4], in [5] and in test [6] was above 100 µM throughout. In addition, the TGI in [7], in [8], in [9] and in test [10] was above 100 µM each time.
Turning to `CCC1(NC(=O)c2cc(F)c(F)c(F)c2F)C(=O)NC(=O)N(C(C)C)C1=O` (stereo not drawn), the GI50 was 50.7 µM in test [1]; 73.5 µM in test [2]; 20 µM in test [3]; 33.7 µM in test [4]; 3.82 µM in test [5]; 12 µM in test [6]. The GI50 in test [7] was 10.3 µM; in test [8], 23.9 µM; in [9], 23.2 µM; in test [10], 15.7 µM. Moreover, the TGI in [1] is above 100 µM; in [2], above 100 µM; in [3], 44.1 µM; in test [4] it was above 100 µM; in [5], 24.9 µM; in test [6] it was 37.2 µM. The TGI in test [7] was found to be 34.6 µM; in [8] it was 53.1 µM; in test [9], 51.1 µM; in test [10] it was 34.1 µM.

(Values after PubChem BioAssay (NCI).)
